Results published in US6806267B1, “Apoptosis-inducing compounds” (priority 1998, dated 2004).

How the values were obtained:
HL-60 cells = experiment: Apoptosis in HL-60 cells, cytospin and Rapi-Diff staining; conditions: for protection against PBOX-6 induced apoptosis: HL-60, N-acetylcysteine 5 mM or TEMPO 1 μM, 30 min prior to PBOX-6 8 hours; for cytotoxicity at 10 µM: Homo sapiens, HL-60, 16 h, read-out: % Apoptosis; for induction of apoptosis at 10 μM / induction of apoptosis at a higher concentration: HL 60 cells; for induction of apoptosis at a higher concentration: higher concentration printed as 10 μM
K562 cells = experiment: Apoptosis in K562 cells, cytospin and staining; type: cell-based, human; conditions: for protection against PBOX-6 induced apoptosis / effect of tyrosine kinase inhibitor pretreatment on PBOX-6 induced apoptosis: K562; for protection against PBOX-6 induced apoptosis: Vitamin E 1 hour or N-acetylcysteine 24 hours, then PBOX-6 16 hours; for effect of pretreatment on PBOX-6 induced apoptosis: K562, 1 hour prior to PBOX-6 16 hours; for induction of apoptosis: K562 cells; for effect of tyrosine kinase inhibitor pretreatment on PBOX-6 induced apoptosis: genistein 100 μM, herbimycin A 5 μM, tyrophostin 200 μM
[1] = molecular target: T1, peripheral-type benzodiazepine receptor (PBR) (Homo sapiens, UniProt P30536); experiment: Radioligand binding assay, inhibition of [^3H]PK 11195 binding to HL-60 homogenates; conditions: for Ki: HL-60 homogenates, 2 nM [^3H]PK 11195, mean±SEM, read-out: Inhibition of [^3H]PK 11195 binding to the PBR, Ki value
T1 construct: Cell homogenates (50 μg protein) were incubated with 0.5-50 nM [^3H]; PK 11195; endogenous in cells; host or cells: HL-60 cell homogenate
Method: HL-60 cells were harvested by centrifugation at 600 g for 5 min and washing in phosphate-buffered saline. The resulting cell pellet was homogenised in 50 mM Tris/HCl buffer, pH 7.4 (2 ml), using an Ultraturrax homogeniser (10 sec) and then passed 5 times through a 21 gauge needle. Cell homogenates (50 μg protein) were incubated with 0.5-50 nM [^3H] PK 11195 in 50 mM Tris/HCl buffer, pH 7.4 (incubation buffer), in a total volume of 0.5 ml on ice. Total and non-specific/non-saturable binding in each case was determined in the absence and presence of 10 μM unlabelled PK 11195 respectively. All samples were incubated in triplicate for 60 min. The incubation mixtures were then filtered and counted as previously described (O'Beirne, et al., 1988). When testing the potency of a compound to inhibit [^3H] PK 11195 binding, samples were incubated with 2 nM [3H] PK 11195 and various concentrations (0.1 nM to 1 μM) of compound and subsequently treated exactly as above. The resulting Ki values were then generated by the use of the computer programs EBDA and LIGAND.
The amount of radioactivity bound in the presence of the displacer was expressed as a percentage of control bonding and the values represent the mean±SEM of triplicate determinations from one representative experiment performed at least twice. The Ki values were obtained as described in Methods section.

[2] = system: human 132 l N1 astrocytoma; conditions: dose-dependent; cited from earlier work
rat C6 glioma = conditions: dose-dependent; cited from earlier work
[3] = system: CML cell lines K562, KYO.1 and Lama 84; experiment: Apoptosis in CML cell lines, cytospin and staining; type: cell-based, human; conditions: for induction of apoptosis at 10 μM / induction of apoptosis at 100 μM: CML cells
JNK1 and JNK2 = type: cell-based, human; conditions: K562
[4] = system: tyrosine phosphorylated proteins; experiment: Protein tyrosine phosphorylation Western blot, K562 cells; type: cell-based, human; conditions: K562, 100 μM in DMSO, 1 hr prior to PBOX-6
Method: Jurkat and CML cells (5×10^6) were harvested by centrifuigation at 1800 g for 10 min at 4° C. After being washed once with ice-cold phosphate-buffered saline, the cell pellet was suspended in 100 μl of ice-cold lysis buffer (50 mM Tris-HCl, pH 8.0, 150 mM NaCl, 0.1%.SDS, 1% Triton X-100, 1 mM sodium 1 mM phenylmethylsulfonyl, 10 ng/ml leupeptin and 10 ng/ml of aprotinin). The cells were left to sit on ice for 10 min and then centrifuged at 20,000 g for 20 min. The resulting supernatant was stored at −70° C. until measurement of tyrosine phosphorylation. Protein determination was measured by using the Bradford assay. Equal amounts of protein were resolved by SDS-polyacrylamide gel electrophoresis in 15% gels and transferred onto polyvinylidene difluoride (PVDF) membranes. Membranes were blocked with Tris-buffered saline with Tween 20 (10 mM Tris-HCl, pH 8.0, 150 mM NaCl, 0.05% Tween 20) containing 1% w/v BSA and probed with anti-phosphotyrosine antibody. Blots were washed, incubated with goat anti-mouse IgG peroxidase conjugate and developed by ECL according to the manufacturer's recommendations.

T1 sequence (P30536 whole entry): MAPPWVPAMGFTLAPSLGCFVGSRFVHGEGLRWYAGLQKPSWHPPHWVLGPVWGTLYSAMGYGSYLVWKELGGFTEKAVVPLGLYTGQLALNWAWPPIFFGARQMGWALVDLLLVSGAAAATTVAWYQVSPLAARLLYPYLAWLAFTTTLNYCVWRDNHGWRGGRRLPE

CC(=O)N[C@@H](CS)C(=O)O [N-acetylcysteine, reference compound]
protection against PBOX-6 induced apoptosis (HL-60 cells): Neither of these compounds were found to protect
protection against PBOX-6 induced apoptosis (K562 cells): failed to protect

CC(=O)OC1=C(c2cccc3ccccc23)Oc2ccccc2-n2cccc21 [PBOX-4, 7-Acetoxy-6-(1-naphthyl)pyrrolo[2,1-d][1,5]benzoxazepine]
Ki [1]: 1.9 ± 2.3 nM
cytotoxicity at 10 µM (HL-60 cells): 42.1 ± 0.6%

CNC(=O)OC1=C(c2cccc3ccccc23)Oc2ccccc2-n2cccc21 [PBOX-7, 7-[(Methylcarbamoyl)oxy]-6-(1-naphthyl)pyrrolo[2,1-d][1,5]-benzoxazepine]
Ki [1]: 1.7 ± 0.7 nM
degree of necrosis (HL-60 cells; HL-60 cells, 10 μM, 16 hours): negligible
cytotoxicity at 10 µM (HL-60 cells): 40.7 ± 2.5%

CN(C)C(=O)OC1=C(c2cccc3ccccc23)Sc2ccccc2-n2cccc21 [PBOX-8, 7-((Dimethylcarbamoyl)oxy)-6-(1-naphthyl)pyrrolo[2,1-d][1,5]benzothiazepine]
cytotoxicity at 10 µM (HL-60 cells): 38.6 ± 3.1%

CC(=O)OC1=C(c2cccc3ccccc23)Sc2ccccc2-n2cccc21 [PBOX-9, 7-Acetoxy-6-(1-naphthyl)pyrrolo[2,1-d][1,5]benzothiazepine]
cytotoxicity at 10 µM (HL-60 cells): 40.4 ± 3%

CC(=O)OC1=C(c2cccc3ccccc23)Oc2cccnc2-n2cccc21 [PBOX-12, 7-Acetoxy-6-(1-naphthyl)pyrrolo[1,2-d]pyrido[3,2-b][1,4]oiazepine]
cytotoxicity at 10 µM (HL-60 cells): 27.1 ± 2.7%

CCN(CC)C(=O)OC1=C(c2ccc(C)cc2)Oc2ccccc2-n2cccc21 [PBOX-21]
inhibition of proliferation, without being cytotoxic [2]: inhibit at micromolar concentrations
inhibition of proliferation, without being cytotoxic (rat C6 glioma): inhibit at micromolar concentrations

CC(=O)OC1=C(c2ccc(C)cc2)Oc2ccccc2-n2cccc21 [PBOX-24, 7-Acetoxy-6p-tolylpyrrolo[2,1-d][1,5]benzoxazepine]
cytotoxicity at 10 µM (HL-60 cells): 7 ± 1.2%

CCNC(=O)OC1=C(c2ccccc2)Oc2ccccc2-n2cccc21 [PBOX-25, 7-[(Ethylcarbamoyl)oxy]-6-phenylpyrrolo[2,1-d][1,5]benzoxazepine]
cytotoxicity at 10 µM (HL-60 cells): 19.2 ± 3%

CCN(CC)C(=O)OC1=C(c2ccccc2)Oc2cccnc2-n2cccc21 [PBOX-26, 7-((Diethylcarbamoyl)oxy)-6-phenylpyrrolo[1,2-d]pyrido[3,2-b][1,4]oxazepine]
cytotoxicity at 10 µM (HL-60 cells): 7.8 ± 2.3%

COc1ccc(C2=C(OC(=O)c3ccncc3)c3cccn3-c3ccccc3S2)cc1 [PBOX-28, 7-Isonicotinoyloxy-6-p-methoxyphenylpyrrolo[2,1-d][1,5]-benothiazepine]
cytotoxicity at 10 µM (HL-60 cells): 31.1 ± 1.7%

CCCC(=O)OC1=C(c2ccc(OC)cc2)[S+]([O-])c2ccccc2-n2cccc21 (stereo not shown) [PBOX-30, 7-(Butyryloxy)-6-(p-methoxyphenyl)pyrrolo[2,1-d][1,5]-benzothiazepine 5-Oxide]
cytotoxicity at 10 µM (HL-60 cells): 33.1 ± 1.6%

CCC(C)N(C)C(=O)c1cc2ccccc2c(-c2ccccc2Cl)n1 (stereo not shown) [PK 11195, 1-(2-chlorophenyl)-N-methyl-N-(1-methylpropyl)-3-isoquinolinecarboxamide]
inhibition of proliferation, without being cytotoxic [2]: inhibit at micromolar concentrations
inhibition of proliferation, without being cytotoxic (rat C6 glioma): inhibit at micromolar concentrations
induction of apoptosis at 10 μM (HL-60 cells; 10 μM): did not induce apoptosis
induction of apoptosis at a higher concentration (HL-60 cells): induced apoptosis
induction of apoptosis at 10 μM [3]: failed to induce apoptosis
induction of apoptosis at 100 μM [3]: apoptosis was induced, although not to the same extent

CN1C(=O)CN=C(c2ccc(Cl)cc2)c2cc(Cl)ccc21 [Ro5-4864, 7-chloro-5-(4-chlorophenyl)-1,3-dihydro-1-methyl-2-H-1,4-benzodiazepin-2-one]
inhibition of proliferation, without being cytotoxic [2]: inhibit at micromolar concentrations
inhibition of proliferation, without being cytotoxic (rat C6 glioma): inhibit at micromolar concentrations
induction of apoptosis at 10 μM (HL-60 cells; 10 μM): did not induce apoptosis
induction of apoptosis at a higher concentration (HL-60 cells): induced apoptosis
induction of apoptosis at 10 μM [3]: failed to induce apoptosis
induction of apoptosis at 100 μM [3]: apoptosis was induced, although not to the same extent

CC1(C)CCCC(C)(C)N1[O] [TEMPO, reference compound]
protection against PBOX-6 induced apoptosis (HL-60 cells): Neither of these compounds were found to protect

CCC(C)N(C)C(=O)c1cc2ccccc2c(-c2ccccc2Cl)n1 (stereo not shown) [[^3H] PK 11195, reference compound]
Bmax of [^3H] PK 11195 binding ([1]; HL-60 cell homogenates): 9.5±1.5 pmol/mg of protein

COc1cc([C@@H]2c3cc4c(cc3[C@@H](O[C@@H]3O[C@@H]5CO[C@@H](C)O[C@H]5[C@H](O)[C@H]3O)[C@H]3COC(=O)[C@H]23)OCO4)cc(OC)c1O [etoposide]
effect of pretreatment on PBOX-6 induced apoptosis (K562 cells): protects against apoptosis
apoptosis (K562 cells; K562, up to 24 hours): failed to undergo apoptosis
induction of apoptosis (K562 cells): does not induce apoptosis
effect of Topo II inhibitor pretreatment on PBOX-6 induced JNK activation (JNK1 and JNK2): failed to prevent against PBOX-6 induced activation of JNK

O=c1c(-c2ccc(O)cc2)coc2cc(O)cc(O)c12 [genistein, reference compound]
effect of pretreatment on PBOX-6 induced protein phosphorylation [4]: prevented the phosphorylation of these two proteins
effect of tyrosine kinase inhibitor pretreatment on PBOX-6 induced apoptosis (K562 cells): completely inhibited the induction of apoptosis

CO[C@H]1[C@@H](OC)C[C@H](C)[C@@H](OC)C2=CC(=O)C=C(NC(=O)/C(C)=C/C=C\[C@H](OC)[C@@H](OC(N)=O)/C(C)=C/[C@@H]1C)C2=O [herbimycin A]
effect of tyrosine kinase inhibitor pretreatment on PBOX-6 induced apoptosis (K562 cells): reduced levels of apoptosis

O=C1c2c(O)ccc(O)c2C(=O)c2c(NCCNCCO)ccc(NCCNCCO)c21 [mitoxanthrone]
effect of pretreatment on PBOX-6 induced apoptosis (K562 cells): protects against apoptosis
induction of apoptosis (K562 cells): does not induce apoptosis

Vitamin E
protection against PBOX-6 induced apoptosis (K562 cells): failed to protect

z-DEVD-fmk [reference compound]
effect of pre-treatment on morphological signs of apoptosis induced by PBOX-6 (HL-60 cells): inhibited
effect of pretreatment on PBOX-6 induced apoptosis [3]: failed to prevent the induction of apoptosis
